Assay results: US8629168B2, “Benzoxazoles and oxazolopyridines being useful as janus kinases inhibitors” (priority 2006, dated 2014)

What was measured:
GST-JAK2 = target: T1, GST-JAK2 (Homo sapiens, UniProt O60674); test: JAK2 kinase assay of the general description (alternative method, flash plate); assay type: biochemical; details: 1.0 μM ATP, read-out: IC50 with test in general description (named “alternative method to that given in the examples”) (“flash plate”)
T1 construct: the amino acid domain ASP751-VAL1129 of the JAK2 protein
Method: Baculovirus including the amino acid domain ASP751-VAL1129 of the JAK2 protein is obtainable by ProQinase, Freiburg, Germany. The virus is scaled up as following: Virus containing media is collected from the transfected cell culture and used for infection to increase its titer. Virus containing media obtained after two rounds of infection is used for large-scale protein expression. For large-scale protein expression 100 cm^2 round tissue culture plates are seeded with 5×10^7 cells/plate and infected with 1 mL of virus-containing media (approx. 5 MOIs). After 3 days the cells are scraped off the plate and centrifuged at 500 rpm for 5 min. Cell pellets from 10-20, 100 cm^2 plates, are re-suspended in 50 mL of ice-cold lysis buffer (25 mMTris-HCl, pH7.5, 2 mMEDTA, 1% NP-40, 1 mM DTT, 1 mMP MSF). The cells are stirred on ice for 15 min and then centrifuged at 5000 rpms for 20 min. The protein is purified by loading the centrifuged cell lysate onto a 2 mL glutathione-sepharose column and washed three times with 10 mL of 25 mM Tris-HCl, pH 7.5, 2 mM EDTA, 1 mM DTT, 200 mM NaCl. The GST-tagged proteins are then eluted by 10 applications (1 mL each) of 25 mM Tris-HCl, pH 7.5, 10 mM reduced-glutathione, 100 mM NaCl, 1 mM DTT, 10% Glycerol and stored at −70° C.
Cancer Cell; 5: 231-239]. The test compound is dissolved in DMSO (10 mM) and stored at −20° C. Serial dilutions are freshly made in DMSO and are […] concentrated than test solutions (“pre-dilution plates”). They are further diluted with pure water to yield “master plates” containing 3 times concentrated test solutions in 3% DMSO. The final volume of the assay is 30 μL containing 10 μL of test solution (1% DMSO), 10 μL assay mix including the assay components described by Garcia-Echeverria (2004) and in the following section as well as 10 μL enzyme. The pipetting steps can be programmed to be performed either on the MultiPROBE Iix, MultiPROBE IILx or HamiltonSTAR robots in the 96 well format.
The protein kinase assays are carried as described in details by Garcia-Echeverria (see above). The assay for JAK2 is carried out in 96-well plates at ambient temperature for 10 min (filter-biding method) or 30 min (flash plates) in a finial volume of 30 μL including the following components: 300 ng of GST-JAK2, 20 mM Tris-HCl, pH 7.5, 1.0 mM MnCl2, 10 mM MgCl2, 1 mM DTT, 3 μg/mL poly(Glu, Tyr) 4:1, 1% DMSO and 1.0 μM ATP (γ-[^33P]-ATP 0.1 μCi); The assays are terminated by the addition of 20 μl of 125 mM EDTA. The capturing of the phosphorylated peptides by the filter-binding method is performed as following: 40 μL of the reaction mixture are transferred onto Immobilon-PVDF membranes previously soaked for 5 min with methanol, rinsed with water, then soaked for 5 min with 0.5% H3PO4 and mounted on vacuum manifold with disconnected vacuum source. After spotting all samples, vacuum is connected and each well rinsed with 200 μl 0.5% H3PO4. Free membranes are removed and washed 4× on a shaker with 1.0% H3PO4, once with ethanol. Membranes are counted after drying at ambient temperature, mounting in Packard TopCount 96-well frame, and addition of 10 μl/well of Microscint. The plates are eventually sealed and counted in a microplate scintillation counter (TopCount NXT, TopCount NXT HTS, PerkinElmer, Brussels, Belgium).
The assays for the flash plate method is carried out in a total volume of 30 μL at RT in conventional 96-well flash plates. The reaction is stopped after 30 min by the addition of 20 μL of 125 mM EDTA The assay plates are then washed three times with PBS and dried at room temperature. The plates are sealed and counted in a microplate scintillation counter (TopCount NXT, TopCount NXT HTS). IC50 values are calculated by linear regression analysis of the percentage inhibition of the compound either in duplicate, at four concentrations (usually 0.01, 0.1, 1 and 10 μM) or as 8 single point IC50 starting at 10 μM following by 1:3 dilutions.

GST-JAK2(808-1132) = target: T2, GST-JAK2(808-1132) (Homo sapiens, UniProt O60674); test: EPK JAK/TYK-kinase family profiling assay (Caliper mobility shift), JAK2; assay type: biochemical; details: Caliper mobility shift assay of Example 187, 20 μM ATP, read-out: IC50 with Test in present Example
T2 construct: GST-JAK2(808-1132) is purchased from Invitrogen; purchased Invitrogen (Carlsbad, USA) #4288
In short: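 Caliper mobility-shift assay with the GST-tagged kinase domain and a fluorescently labeled peptide substrate plus ATP, run 60 min at 30° C and then stopped with EDTA buffer. Turnover was taken as the substrate/product ratio. Compounds were tested at eight final concentrations from 10 to 0.003 μM.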

T2 sequence (O60674 808-1132): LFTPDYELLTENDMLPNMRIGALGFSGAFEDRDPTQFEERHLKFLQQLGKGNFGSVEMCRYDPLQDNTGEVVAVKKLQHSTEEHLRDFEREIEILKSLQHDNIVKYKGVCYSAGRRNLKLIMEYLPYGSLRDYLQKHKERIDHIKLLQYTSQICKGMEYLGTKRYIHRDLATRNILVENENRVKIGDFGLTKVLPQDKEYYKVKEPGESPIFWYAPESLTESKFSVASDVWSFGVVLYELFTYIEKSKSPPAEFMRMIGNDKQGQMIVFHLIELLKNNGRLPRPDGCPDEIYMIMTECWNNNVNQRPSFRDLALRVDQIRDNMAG
T1 sequence (O60674 751-1129): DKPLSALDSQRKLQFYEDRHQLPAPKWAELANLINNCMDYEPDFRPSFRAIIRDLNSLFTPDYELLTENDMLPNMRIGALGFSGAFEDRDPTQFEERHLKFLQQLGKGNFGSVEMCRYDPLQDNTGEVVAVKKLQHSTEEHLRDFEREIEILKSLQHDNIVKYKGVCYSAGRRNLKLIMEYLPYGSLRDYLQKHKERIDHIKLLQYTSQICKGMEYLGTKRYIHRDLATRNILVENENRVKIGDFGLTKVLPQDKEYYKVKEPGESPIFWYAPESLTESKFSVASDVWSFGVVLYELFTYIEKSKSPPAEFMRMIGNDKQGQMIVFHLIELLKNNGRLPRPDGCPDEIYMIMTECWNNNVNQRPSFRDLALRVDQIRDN

Compound	IC50 (GST-JAK2) [nM]	IC50 (GST-JAK2(808-1132)) [nM]
COc1cc(Nc2nc3cccc(-c4ccc5[nH]cnc5c4)c3o2)cc(OC)c1OC [Example 35, [7-(1H-Benzoimidazol-5-yl)-benzooxazol-2-yl]-(3,4,5-trimethoxy-phenyl)-amine]	120	
COc1cc(Nc2nc3cccc(-c4cccc(O)c4)c3o2)cc(OC)c1OC [Example 6, [7-(3-Hydroxy-phenyl)-benzooxazol-2-yl]-(3,4,5-trimethoxy-phenyl)-amine]	178	
COc1cc(Nc2nc3cccc(-c4ccccn4)c3o2)cc(OC)c1OC [Example 46, (7-Pyridin-2-yl-benzooxazol-2-yl)-(3,4,5-trimethoxy-phenyl)-amine]	350	
COc1cc(Nc2nc3cccc(-c4ccc(NS(C)(=O)=O)cc4)c3o2)cc(OC)c1OC [Example 26, N-{4-[2-(3,4,5-Trimethoxy-phenylamino)-benzooxazol-7-yl]-phenyl}-methanesulfonamide]	52	
CNS(=O)(=O)c1cccc(-c2cccc3nc(Nc4cc(OC)c(OC)c(OC)c4)oc23)c1 [Example 50, N-Methyl-3-[2-(3,4,5-trimethoxy-phenylamino)-benzooxazol-7-yl]-benzene-sulfonamide]	610	
COc1ccc(Nc2nc3cccc(-c4ccc(S(N)(=O)=O)cc4)c3o2)cc1OC [Example 58, 4-[2-(3,4-Dimethoxy-phenylamino)-benzooxazol-7-yl]-benzenesulfonamide]	41.5	37
COc1cc(Nc2nc3cccc(-c4ccc(Cl)c(N)c4)c3o2)cc(OC)c1OC [Example 52, [7-(3-Amino-4-chloro-phenyl)-benzooxazol-2-yl]-(3,4,5-trimethoxy-phenyl)-amine]	150	
COc1cc(Nc2nc3cccc(-c4ccccc4N)c3o2)cc(OC)c1OC [Example 14, [7-(2-Amino-phenyl)-benzooxazol-2-yl]-(3,4,5-trimethoxy-phenyl)-amine]	610	
Nc1cccc(-c2cccc3nc(Nc4ccc(N5CCOCC5)cc4)oc23)c1 [Example 43, [7-(3-Amino-phenyl)-benzooxazol-2-yl]-(4-morpholin-4-yl-phenyl)-amine]	1900	
COc1cc(Nc2nc3cccc(-c4ccc(S(N)(=O)=O)cc4)c3o2)cc(OC)c1 [Example 60, 4-[2-(3,5-Dimethoxy-phenylamino)-benzooxazol-7-yl]-benzenesulfonamide]	160	170
COc1cc(Nc2nc3cccc(-c4ccc(N(C)C)cc4)c3o2)cc(OC)c1OC [Example 54, [7-(4-Dimethylamino-phenyl)-benzooxazol-2-yl]-(3,4,5-trimethoxy-phenyl)-amine]	350	
COc1cc(Nc2nc3cccc(-c4ccc(NC(C)=O)cc4)c3o2)cc(OC)c1OC [Example 27, N-{4-[2-(3,4,5-Trimethoxy-phenylamino)-benzooxazol-7-yl]-phenyl}-acetamide]	200	
COc1cc(Nc2nc3ccnc(-c4ccc(CNS(C)(=O)=O)cc4)c3o2)cc(OC)c1OC [Example 62, N-{4-[2-(3,4,5-Trimethoxy-phenylamino)-oxazolo[5,4-c]pyridin-4-yl]-benzyl}-methanesulfonamide]	230	16
COc1cc(Nc2nc3cccc(-c4cccc(S(C)(=O)=O)c4)c3o2)cc(OC)c1OC [Example 49, [7-(3-Methanesulfonyl-phenyl)-benzooxazol-2-yl]-(3,4,5-trimethoxy-phenyl)-amine]	520	
COc1cc(Nc2nc3cccc(-c4cccc(C(N)=O)c4)c3o2)cc(OC)c1OC [Example 47, 3-[2-(3,4,5-Trimethoxy-phenylamino)-benzooxazol-7-yl]-benzamide]	593	
COc1cc(Nc2nc3cccc(-c4ccccc4C)c3o2)cc(OC)c1OC [Example 44, (7-o-Tolyl-benzooxazol-2-yl)-(3,4,5-trimethoxy-phenyl)-amine]	930	
COc1cc(Nc2nc3cccc(-c4cccc(NS(C)(=O)=O)c4)c3o2)cc(OC)c1OC [Example 55, N-{3-[2-(3,4,5-Trimethoxy-phenylamino)-benzooxazol-7-yl]-phenyl}-methanesulfonamide]	420	
CNS(=O)(=O)c1ccc(-c2cccc3nc(Nc4ccc(OC)c(OC)c4)oc23)cc1 [Example 59, 4-[2-(3,4-Dimethoxy-phenylamino)-benzooxazol-7-yl]-N-methyl-benzenesulfonamide]	41	
COc1cc(Nc2nc3cccc(-c4ccc(CN)cc4)c3o2)cc(OC)c1OC [Example 29, [7-(4-Aminomethyl-phenyl)-benzooxazol-2-yl]-(3,4,5-trimethoxy-phenyl)-amine]	250	66
COc1cc(Nc2nc3cccc(-c4ccc(CNC(C)=O)cc4)c3o2)cc(OC)c1OC [Example 30, N-{4-[2-(3,4,5-Trimethoxy-phenylamino)-benzooxazol-7-yl]-benzyl}-acetamide]	41	21
COc1cc(Nc2nc3cccc(-c4cccc(C#N)c4)c3o2)cc(OC)c1OC [Example 45, 3-[2-(3,4,5-Trimethoxy-phenylamino)-benzooxazol-7-yl]-benzonitrile]	950	
COc1ccc(-c2cccc3nc(Nc4cc(OC)c(OC)c(OC)c4)oc23)cc1N [Example 53, [7-(3-Amino-4-methoxy-phenyl)-benzooxazol-2-yl]-(3,4,5-trimethoxy-phenyl)-amine]	557	
COc1cc(Nc2nc3ccnc(-c4ccc(N)cc4)c3o2)cc(OC)c1OC [Example 36, [4-(4-Amino-phenyl)-oxazolo[5,4-c]pyridin-2-yl]-(3,4,5-trimethoxy-phenyl)-amine]	120	
COc1cc(Nc2nc3cccc(-c4ccc(C(=O)N5CCOCC5)cc4)c3o2)cc(OC)c1OC [Example 141, Morpholin-4-yl-{4-[2-(3,4,5-trimethoxy-phenylamino)-benzooxazol-7-yl]-phenyl}-methanone]	220	8.1
COc1cc(Nc2nc3cccc(-c4cccc([N+](=O)[O-])c4)c3o2)cc(OC)c1OC [Example 48, [7-(3-Nitro-phenyl)-benzooxazol-2-yl]-(3,4,5-trimethoxy-phenyl)-amine]	700	
CNC(=O)Cc1ccc(-c2cccc3nc(Nc4cc(OC)c(OC)c(OC)c4)oc23)cc1 [Example 61, N-Methyl-2-{4-[2-(3,4,5-trimethoxy-phenylamino)-benzooxazol-7-yl]-phenyl}-acetamide]	87	
CNC(=O)c1cc(-c2cccc3nc(Nc4cc(OC)c(OC)c(OC)c4)oc23)cs1 [Example 34, 4-[2-(3,4,5-Trimethoxy-phenylamino)-benzooxazol-7-yl]-thiophene-2-carboxylic acid methylamide]	540	
COc1ccc(-c2cccc3nc(Nc4cc(OC)c(OC)c(OC)c4)oc23)cc1[N+](=O)[O-] [Example 51, [7-(4-Methoxy-3-nitro-phenyl)-benzooxazol-2-yl]-(3,4,5-trimethoxy-phenyl)-amine]	450	
